What was measured:
[1] = tested on: 48 PDX models in 8 cancers; assay: karenitecin treatment of a cohort of 48 PDX models; assay type: in vivo; settings: number of the 48 PDX models in 8 cancers; treatment for two weeks
Procedure: (§1) A cohort of 48 PDX models in 8 cancers were used in this study. Those models were subject to karenitecin treatment for two weeks. Both tumor growth inhibition (TGI) and median AUC (area under curve) ratio, a newly developed metric to evaluate drug efficacy, were calculated (Table 1). Those models can be divided into two categories according to TGI and median AUC ratio.

[2] = tested on: extensively pretreated ovarian cancer; settings: previous clinical trial (Kavanagh 2008); cited from earlier work
[3] = prior studies, cited from earlier work
[4] = tested on: PDX SA0271; assay: karenitecin treatment of PDX model; assay type: in vivo; set-up: key to Response: responder: responded to karenitecin treatment (AUC<0.5 and TGI>0.8); non_responder: did not respond to karenitecin treatment (AUC>0.5 and TGI<0.6); settings: karenitecin treatment for two weeks
Procedure: as §1

[5] = tested on: PDX GA3102; assay: karenitecin treatment of PDX model; assay type: in vivo; set-up: key to Response: responder: responded to karenitecin treatment (AUC<0.5 and TGI>0.8); non_responder: did not respond to karenitecin treatment (AUC>0.5 and TGI<0.6); settings: karenitecin treatment for two weeks
Procedure: as §1

[6] = tested on: PDX LU0884; assay: karenitecin treatment of PDX model; assay type: in vivo; set-up: key to Response: responder: responded to karenitecin treatment (AUC<0.5 and TGI>0.8); non_responder: did not respond to karenitecin treatment (AUC>0.5 and TGI<0.6); settings: karenitecin treatment for two weeks
Procedure: as §1

[7] = tested on: PDX LU0330; assay: karenitecin treatment of PDX model; assay type: in vivo; set-up: key to Response: responder: responded to karenitecin treatment (AUC<0.5 and TGI>0.8); non_responder: did not respond to karenitecin treatment (AUC>0.5 and TGI<0.6); settings: karenitecin treatment for two weeks
Procedure: as §1

[8] = tested on: PDX LU1901; assay: karenitecin treatment of PDX model; assay type: in vivo; set-up: key to Response: responder: responded to karenitecin treatment (AUC<0.5 and TGI>0.8); non_responder: did not respond to karenitecin treatment (AUC>0.5 and TGI<0.6); settings: karenitecin treatment for two weeks
Procedure: as §1

[9] = tested on: PDX LU0858; assay: karenitecin treatment of PDX model; assay type: in vivo; set-up: key to Response: responder: responded to karenitecin treatment (AUC<0.5 and TGI>0.8); non_responder: did not respond to karenitecin treatment (AUC>0.5 and TGI<0.6); settings: karenitecin treatment for two weeks
Procedure: as §1

[10] = tested on: PDX GA0087; assay: karenitecin treatment of PDX model; assay type: in vivo; set-up: key to Response: responder: responded to karenitecin treatment (AUC<0.5 and TGI>0.8); non_responder: did not respond to karenitecin treatment (AUC>0.5 and TGI<0.6); settings: karenitecin treatment for two weeks
Procedure: as §1

[11] = tested on: PDX CR6249; assay: karenitecin treatment of PDX model; assay type: in vivo; set-up: key to Response: responder: responded to karenitecin treatment (AUC<0.5 and TGI>0.8); non_responder: did not respond to karenitecin treatment (AUC>0.5 and TGI<0.6); settings: karenitecin treatment for two weeks
Procedure: as §1

[12] = tested on: PDX LU1868; assay: karenitecin treatment of PDX model; assay type: in vivo; set-up: key to Response: responder: responded to karenitecin treatment (AUC<0.5 and TGI>0.8); non_responder: did not respond to karenitecin treatment (AUC>0.5 and TGI<0.6); settings: karenitecin treatment for two weeks
Procedure: as §1

[13] = tested on: PDX LU1271; assay: karenitecin treatment of PDX model; assay type: in vivo; set-up: key to Response: responder: responded to karenitecin treatment (AUC<0.5 and TGI>0.8); non_responder: did not respond to karenitecin treatment (AUC>0.5 and TGI<0.6); settings: karenitecin treatment for two weeks
Procedure: as §1

[14] = tested on: PDX GA3055; assay: karenitecin treatment of PDX model; assay type: in vivo; set-up: key to Response: responder: responded to karenitecin treatment (AUC<0.5 and TGI>0.8); non_responder: did not respond to karenitecin treatment (AUC>0.5 and TGI<0.6); settings: karenitecin treatment for two weeks
Procedure: as §1

[15] = tested on: PDX LU1155; assay: karenitecin treatment of PDX model; assay type: in vivo; set-up: key to Response: responder: responded to karenitecin treatment (AUC<0.5 and TGI>0.8); non_responder: did not respond to karenitecin treatment (AUC>0.5 and TGI<0.6); settings: karenitecin treatment for two weeks
Procedure: as §1

[16] = tested on: PDX GL1208; assay: karenitecin treatment of PDX model; assay type: in vivo; set-up: key to Response: responder: responded to karenitecin treatment (AUC<0.5 and TGI>0.8); non_responder: did not respond to karenitecin treatment (AUC>0.5 and TGI<0.6); settings: karenitecin treatment for two weeks
Procedure: as §1

[17] = tested on: PDX LU1116; assay: karenitecin treatment of PDX model; assay type: in vivo; set-up: key to Response: responder: responded to karenitecin treatment (AUC<0.5 and TGI>0.8); non_responder: did not respond to karenitecin treatment (AUC>0.5 and TGI<0.6); settings: karenitecin treatment for two weeks
Procedure: as §1

[18] = tested on: PDX OV0273; assay: karenitecin treatment of PDX model; assay type: in vivo; set-up: key to Response: responder: responded to karenitecin treatment (AUC<0.5 and TGI>0.8); non_responder: did not respond to karenitecin treatment (AUC>0.5 and TGI<0.6); settings: karenitecin treatment for two weeks
Procedure: as §1

[19] = tested on: PDX LU1429; assay: karenitecin treatment of PDX model; assay type: in vivo; set-up: key to Response: responder: responded to karenitecin treatment (AUC<0.5 and TGI>0.8); non_responder: did not respond to karenitecin treatment (AUC>0.5 and TGI<0.6); settings: karenitecin treatment for two weeks
Procedure: as §1

Q: Which “models did not respond to karenitecin treatment (AUC>0.5 and TGI<0.6)” value [1] does the source give for `CC[C@@]1(O)C(=O)OCc2c1cc1n(c2=O)Cc2c-1nc1ccccc1c2CC[Si](C)(C)C` [karenitecin] here?
A: 17

Q: What about the “models responded to karenitecin treatment (AUC<0.5 and TGI>0.8)” value [1] of the same compound?
A: Thirty-one

Q: And the response rate [2]?
A: low

Q: What about the “incidence of severe diarrhea” value ([3]; compared with irinotecan) of the same compound?
A: lower

Q: What about the “incidence and severity of anemia, neutropenia and thrombocytopenia” value ([3]; compared with topotecan) of the same compound?
A: lower

Q: What about the “Median AUC ratio” value [4] of the same compound?
A: −0.133

Q: What about the Response [4] of the same compound?
A: responder

Q: And the TGI [4]?
A: 1.104

Q: And the “Median AUC ratio” value [5]?
A: 0.084

Q: What about the Response [5] of the same compound?
A: responder

Q: What about the TGI [5] of the same compound?
A: 1.061

Q: What about the “Median AUC ratio” value [6] of the same compound?
A: 1.497

Q: What about the Response [6] of the same compound?
A: non_responder

Q: And the TGI [6]?
A: −0.188

Q: What about the “Median AUC ratio” value [7] of the same compound?
A: 1.094

Q: And the Response [7]?
A: non_responder

Q: And the TGI [7]?
A: 0.000

Q: What about the “Median AUC ratio” value [8] of the same compound?
A: −0.295

Q: And the Response [8]?
A: responder

Q: And the TGI [8]?
A: 1.077

Q: And the “Median AUC ratio” value [9]?
A: 0.027

Q: What about the Response [9] of the same compound?
A: responder

Q: And the TGI [9]?
A: 1.000

Q: What about the “Median AUC ratio” value [10] of the same compound?
A: −1.097

Q: And the Response [10]?
A: responder

Q: What about the TGI [10] of the same compound?
A: 1.316

Q: What about the “Median AUC ratio” value [11] of the same compound?
A: −0.712

Q: What about the Response [11] of the same compound?
A: responder

Q: What about the TGI [11] of the same compound?
A: 1.253

Q: And the “Median AUC ratio” value [12]?
A: 0.915

Q: What about the Response [12] of the same compound?
A: non_responder

Q: What about the TGI [12] of the same compound?
A: 0.534

Q: What about the “Median AUC ratio” value [13] of the same compound?
A: −0.007

Q: What about the Response [13] of the same compound?
A: responder

Q: What about the TGI [13] of the same compound?
A: 1.081

Q: What about the “Median AUC ratio” value [14] of the same compound?
A: −0.072

Q: And the Response [14]?
A: responder

Q: What about the TGI [14] of the same compound?
A: 1.215

Q: What about the “Median AUC ratio” value [15] of the same compound?
A: 0.406

Q: And the Response [15]?
A: responder

Q: And the TGI [15]?
A: 0.991

Q: What about the “Median AUC ratio” value [16] of the same compound?
A: 0.811

Q: And the Response [16]?
A: non_responder

Q: What about the TGI [16] of the same compound?
A: 0.135

Q: And the “Median AUC ratio” value [17]?
A: 0.111

Q: And the Response [17]?
A: responder

Q: What about the TGI [17] of the same compound?
A: 1.250

Q: And the “Median AUC ratio” value [18]?
A: −0.092

Q: And the Response [18]?
A: responder

Q: What about the TGI [18] of the same compound?
A: 1.052

Q: And the “Median AUC ratio” value [19]?
A: 0.076

Q: What about the Response [19] of the same compound?
A: responder

Q: What about the TGI [19] of the same compound?
A: 1.054

Source: US11339447B2, “System and method for determining Kareniticin sensitivity on cancer” (CROWN BIOSCIENCE, INC. (TAICANG), priority 2017, dated 2022)
